Among the test systems are RV-FVPγ; RV-FVPβ; RV-FVPδ.
Holding throughout (conditions): 50 nM enzyme; BAEE 0.04-0.2 mg/ml; 37°C; native glycosylated enzyme
A further experiment has as its system RV-FVPα. The format is biochemical, Daboia russelii.

Regarding `CCOC(=O)[C@H](CCCNC(=N)N)NC(=O)c1ccccc1` [BAEE], the Km with RV-FVPα stood at 0.143 mg/mL; in the experiment on RV-FVPγ it was 0.159 mg/mL; in the experiment on RV-FVPβ, 0.156 mg/mL; with RV-FVPδ, 0.159 mg/mL.
